Source: ChEMBL document CHEMBL3885861, “Open TG-GATES”

Species on record: Rattus norvegicus
Experiment: Open TG-GATES - Regimen: Single
Format: toxicity, organism-based, Sprague-Dawley
Design: regimen Single, gender Male, age 6 weeks
Details: in vivo, po, route gavage; for APTT / Bas / Eos / Fbg / Hb / Ht / Lym / MCH / MCHC / MCV / Mono / Neu / PT / Plat / RBC / Ret / WBC: tissue Blood; for KIDNEY_L / KIDNEY_R / KIDNEY_TOTAL: tissue Kidney; for LIVER: tissue Liver; for A/G / ALP / ALT / AST / BUN / CRE / Ca / Cl / DBIL / GLC / IP / K / LDH / Na / PL / RALB / TBIL / TC / TG / TP / gamma-GTP: tissue Plasma
[1] = 30 mg/kg, 3 h, dose level Middle
[2] = 30 mg/kg, 6 h, dose level Middle
[3] = 30 mg/kg, 9 h, dose level Middle
[4] = 30 mg/kg, 24 h, dose level Middle
[5] = 100 mg/kg, 3 h, dose level High
[6] = 100 mg/kg, 6 h, dose level High
[7] = 100 mg/kg, 9 h, dose level High
[8] = 100 mg/kg, 24 h, dose level High

CN(C)CCN(Cc1cccs1)c1ccccn1
TERMINAL_BW [1]: 182 g
APTT [1]: 21.9 s
Bas [1]: 0%
Eos [1]: 0.6%
Fbg [1]: 308.2 mg/dL
Hb [1]: 13 g/dL
Ht [1]: 39.6%
Lym [1]: 80.2%
MCH [1]: 21.6 pg
MCHC [1]: 32.8%
MCV [1]: 65.9 fL
Mono [1]: 2.2%
Neu [1]: 15.8%
PT [1]: 16.1 s
Plat [1]: 115.9 x10_4/uL
RBC [1]: 603 x10_4/ul
Ret [1]: 7.3%
WBC [1]: 81.5 x10_2/uL
KIDNEY_L [1]: 0.8 g
KIDNEY_R [1]: 0.9 g
KIDNEY_TOTAL [1]: 1.7 g
LIVER [1]: 8.3 g
A/G [1]: 1.3
ALP [1]: 1624.8 IU/L
ALT [1]: 41.4 IU/L
AST [1]: 73.6 IU/L
BUN [1]: 13 mg/dL
CRE [1]: 0.2 mg/dL
Ca [1]: 10.5 mg/dL
Cl [1]: 107.6 meq/L
DBIL [1]: 0 mg/dL
GLC [1]: 179 mg/dL
IP [1]: 8.4 mg/dL
K [1]: 4.4 meq/L
LDH [1]: 201.8 IU/L
Na [1]: 142.8 meq/L
PL [1]: 140.4 mg/dL
RALB [1]: 3 g/dL
TBIL [1]: 0.016 mg/dL
TC [1]: 75.4 mg/dL
TG [1]: 53.4 mg/dL
TP [1]: 5.4 g/dL
gamma-GTP [1]: 1 IU/L
TERMINAL_BW [2]: 186.2 g
APTT [2]: 21.5 s
Bas [2]: 0%
Eos [2]: 0.6%
Fbg [2]: 292.6 mg/dL
Hb [2]: 12.6 g/dL
Ht [2]: 38.7%
Lym [2]: 74.6%
MCH [2]: 21 pg
MCHC [2]: 32.7%
MCV [2]: 64 fL
Mono [2]: 2%
Neu [2]: 22%
PT [2]: 16.9 s
Plat [2]: 117.9 x10_4/uL
RBC [2]: 604 x10_4/ul
Ret [2]: 7.6%
WBC [2]: 62.8 x10_2/uL
KIDNEY_L [2]: 0.8 g
KIDNEY_R [2]: 0.9 g
KIDNEY_TOTAL [2]: 1.7 g
LIVER [2]: 8 g
A/G [2]: 1.2
ALP [2]: 1536.2 IU/L
ALT [2]: 34.2 IU/L
AST [2]: 71.2 IU/L
BUN [2]: 12.8 mg/dL
CRE [2]: 0.1 mg/dL
Ca [2]: 10.5 mg/dL
Cl [2]: 106.2 meq/L
DBIL [2]: 0 mg/dL
GLC [2]: 173 mg/dL
IP [2]: 9.2 mg/dL
K [2]: 4.5 meq/L
LDH [2]: 178 IU/L
Na [2]: 141.6 meq/L
PL [2]: 142.4 mg/dL
RALB [2]: 2.8 g/dL
TBIL [2]: 0.024 mg/dL
TC [2]: 82.6 mg/dL
TG [2]: 53 mg/dL
TP [2]: 5.3 g/dL
gamma-GTP [2]: 1 IU/L
TERMINAL_BW [3]: 183.7 g
APTT [3]: 20.6 s
Bas [3]: 0%
Eos [3]: 0.6%
Fbg [3]: 290.8 mg/dL
Hb [3]: 12.9 g/dL
Ht [3]: 38.4%
Lym [3]: 74%
MCH [3]: 21.1 pg
MCHC [3]: 33.5%
MCV [3]: 63.1 fL
Mono [3]: 2.2%
Neu [3]: 22.2%
PT [3]: 15.5 s
Plat [3]: 124.7 x10_4/uL
RBC [3]: 608.8 x10_4/ul
Ret [3]: 7.7%
WBC [3]: 66.5 x10_2/uL
KIDNEY_L [3]: 0.8 g
KIDNEY_R [3]: 0.8 g
KIDNEY_TOTAL [3]: 1.7 g
LIVER [3]: 7.5 g
A/G [3]: 1.2
ALP [3]: 1582.8 IU/L
ALT [3]: 35.8 IU/L
AST [3]: 69.8 IU/L
BUN [3]: 11.2 mg/dL
CRE [3]: 0.1 mg/dL
Ca [3]: 10.3 mg/dL
Cl [3]: 106.8 meq/L
DBIL [3]: 0.002 mg/dL
GLC [3]: 166.6 mg/dL
IP [3]: 9.9 mg/dL
K [3]: 4.5 meq/L
LDH [3]: 205.6 IU/L
Na [3]: 141.8 meq/L
PL [3]: 131 mg/dL
RALB [3]: 3 g/dL
TBIL [3]: 0.022 mg/dL
TC [3]: 77.4 mg/dL
TG [3]: 42.2 mg/dL
TP [3]: 5.5 g/dL
gamma-GTP [3]: 1 IU/L
TERMINAL_BW [4]: 198 g
APTT [4]: 20 s
Bas [4]: 0%
Eos [4]: 0.8%
Fbg [4]: 308 mg/dL
Hb [4]: 12.9 g/dL
Ht [4]: 38.8%
Lym [4]: 84.4%
MCH [4]: 20.6 pg
MCHC [4]: 33.2%
MCV [4]: 62.1 fL
Mono [4]: 1.6%
Neu [4]: 12.4%
PT [4]: 16.8 s
Plat [4]: 124 x10_4/uL
RBC [4]: 625.6 x10_4/ul
Ret [4]: 6.8%
WBC [4]: 67.2 x10_2/uL
KIDNEY_L [4]: 0.9 g
KIDNEY_R [4]: 0.9 g
KIDNEY_TOTAL [4]: 1.8 g
LIVER [4]: 9.3 g
A/G [4]: 1.2
ALP [4]: 1883 IU/L
ALT [4]: 46.4 IU/L
AST [4]: 74.8 IU/L
BUN [4]: 15.4 mg/dL
CRE [4]: 0.2 mg/dL
Ca [4]: 10.9 mg/dL
Cl [4]: 106 meq/L
DBIL [4]: 0.004 mg/dL
GLC [4]: 179.8 mg/dL
IP [4]: 7.3 mg/dL
K [4]: 4.4 meq/L
LDH [4]: 254.8 IU/L
Na [4]: 142.4 meq/L
PL [4]: 143.2 mg/dL
RALB [4]: 3 g/dL
TBIL [4]: 0.008 mg/dL
TC [4]: 73.4 mg/dL
TG [4]: 124.6 mg/dL
TP [4]: 5.5 g/dL
gamma-GTP [4]: 1.2 IU/L
TERMINAL_BW [5]: 184.9 g
APTT [5]: 21.5 s
Bas [5]: 0%
Eos [5]: 0.8%
Fbg [5]: 290.4 mg/dL
Hb [5]: 13.2 g/dL
Ht [5]: 40.2%
Lym [5]: 74%
MCH [5]: 20.6 pg
MCHC [5]: 32.9%
MCV [5]: 62.8 fL
Mono [5]: 2%
Neu [5]: 22.2%
PT [5]: 16.3 s
Plat [5]: 121.5 x10_4/uL
RBC [5]: 640.8 x10_4/ul
Ret [5]: 7.2%
WBC [5]: 60.8 x10_2/uL
KIDNEY_L [5]: 0.8 g
KIDNEY_R [5]: 0.9 g
KIDNEY_TOTAL [5]: 1.7 g
LIVER [5]: 8 g
A/G [5]: 1.2
ALP [5]: 1601.8 IU/L
ALT [5]: 54.6 IU/L
AST [5]: 82.2 IU/L
BUN [5]: 10.8 mg/dL
CRE [5]: 0.1 mg/dL
Ca [5]: 10.3 mg/dL
Cl [5]: 106.6 meq/L
DBIL [5]: 0.002 mg/dL
GLC [5]: 185 mg/dL
IP [5]: 8.3 mg/dL
K [5]: 4.3 meq/L
LDH [5]: 258.8 IU/L
Na [5]: 142.4 meq/L
PL [5]: 121.4 mg/dL
RALB [5]: 2.9 g/dL
TBIL [5]: 0.012 mg/dL
TC [5]: 69.8 mg/dL
TG [5]: 36 mg/dL
TP [5]: 5.4 g/dL
gamma-GTP [5]: 1 IU/L
TERMINAL_BW [6]: 183.8 g
APTT [6]: 21.3 s
Bas [6]: 0%
Eos [6]: 0.4%
Fbg [6]: 282.2 mg/dL
Hb [6]: 13.1 g/dL
Ht [6]: 39.5%
Lym [6]: 76%
MCH [6]: 21.6 pg
MCHC [6]: 33.3%
MCV [6]: 64.8 fL
Mono [6]: 2.4%
Neu [6]: 20.6%
PT [6]: 16.6 s
Plat [6]: 120.5 x10_4/uL
RBC [6]: 610 x10_4/ul
Ret [6]: 8.4%
WBC [6]: 73.4 x10_2/uL
KIDNEY_L [6]: 0.8 g
KIDNEY_R [6]: 0.8 g
KIDNEY_TOTAL [6]: 1.7 g
LIVER [6]: 7.5 g
A/G [6]: 1.1
ALP [6]: 1538 IU/L
ALT [6]: 51.2 IU/L
AST [6]: 90.2 IU/L
BUN [6]: 14.6 mg/dL
CRE [6]: 0.2 mg/dL
Ca [6]: 10.5 mg/dL
Cl [6]: 107.4 meq/L
DBIL [6]: 0.004 mg/dL
GLC [6]: 170.2 mg/dL
IP [6]: 9.4 mg/dL
K [6]: 4.5 meq/L
LDH [6]: 259.2 IU/L
Na [6]: 141.8 meq/L
PL [6]: 110 mg/dL
RALB [6]: 2.8 g/dL
TBIL [6]: 0.02 mg/dL
TC [6]: 64.8 mg/dL
TG [6]: 33.4 mg/dL
TP [6]: 5.2 g/dL
gamma-GTP [6]: 1 IU/L
TERMINAL_BW [7]: 183.7 g
APTT [7]: 21.3 s
Bas [7]: 0%
Eos [7]: 0.8%
Fbg [7]: 284.6 mg/dL
Hb [7]: 13.2 g/dL
Ht [7]: 39.6%
Lym [7]: 72.2%
MCH [7]: 21.1 pg
MCHC [7]: 33.3%
MCV [7]: 63.5 fL
Mono [7]: 3.6%
Neu [7]: 22.6%
PT [7]: 16.2 s
Plat [7]: 122.3 x10_4/uL
RBC [7]: 624.2 x10_4/ul
Ret [7]: 7.6%
WBC [7]: 71.6 x10_2/uL
KIDNEY_L [7]: 0.8 g
KIDNEY_R [7]: 0.9 g
KIDNEY_TOTAL [7]: 1.7 g
LIVER [7]: 7.8 g
A/G [7]: 1.2
ALP [7]: 1538 IU/L
ALT [7]: 60.2 IU/L
AST [7]: 100.6 IU/L
BUN [7]: 11 mg/dL
CRE [7]: 0.1 mg/dL
Ca [7]: 10.1 mg/dL
Cl [7]: 107.6 meq/L
DBIL [7]: 0 mg/dL
GLC [7]: 172.8 mg/dL
IP [7]: 9.7 mg/dL
K [7]: 4.2 meq/L
LDH [7]: 233.6 IU/L
Na [7]: 141.8 meq/L
PL [7]: 117 mg/dL
RALB [7]: 2.9 g/dL
TBIL [7]: 0.022 mg/dL
TC [7]: 68 mg/dL
TG [7]: 35 mg/dL
TP [7]: 5.3 g/dL
gamma-GTP [7]: 1.2 IU/L
TERMINAL_BW [8]: 193.3 g
APTT [8]: 20.8 s
Bas [8]: 0%
Eos [8]: 0.8%
Fbg [8]: 275.2 mg/dL
Hb [8]: 13 g/dL
Ht [8]: 39.4%
Lym [8]: 73.2%
MCH [8]: 20.7 pg
MCHC [8]: 32.9%
MCV [8]: 62.9 fL
Mono [8]: 2.8%
Neu [8]: 22.2%
PT [8]: 17.3 s
Plat [8]: 114.4 x10_4/uL
RBC [8]: 627 x10_4/ul
Ret [8]: 7%
WBC [8]: 61.6 x10_2/uL
KIDNEY_L [8]: 0.8 g
KIDNEY_R [8]: 0.9 g
KIDNEY_TOTAL [8]: 1.7 g
LIVER [8]: 9.1 g
A/G [8]: 1.3
ALP [8]: 1813.6 IU/L
ALT [8]: 68.4 IU/L
AST [8]: 109.6 IU/L
BUN [8]: 16 mg/dL
CRE [8]: 0.2 mg/dL
Ca [8]: 10.7 mg/dL
Cl [8]: 106.6 meq/L
DBIL [8]: 0.004 mg/dL
GLC [8]: 172 mg/dL
IP [8]: 7.8 mg/dL
K [8]: 4.4 meq/L
LDH [8]: 260.2 IU/L
Na [8]: 143.2 meq/L
PL [8]: 136 mg/dL
RALB [8]: 2.9 g/dL
TBIL [8]: 0.01 mg/dL
TC [8]: 70.8 mg/dL
TG [8]: 65.2 mg/dL
TP [8]: 5.2 g/dL
gamma-GTP [8]: 1 IU/L
